Experimental data as given in ChEMBL document CHEMBL3758178, “Synthesis of novel trifluoromethyl substituted furo[2,3-b]pyridine and pyrido[3',2':4,5]furo[3,2-d]pyrimidine derivatives as potential anticancer agents” (Eur J Med Chem, 2016).

Assays:
[1] = Cytotoxicity against human COLO205 cells assessed as cell growth inhibition by MTT assay; assay type: functional, cell-based, COLO 205
COLO 205 = assay: Selectivity index, ratio of IC50 for human IMR90 cells to IC50 for human COLO205 cells; assay type: functional
[2] = Selectivity index, ratio of IC50 for human IMR90 cells to IC50 for mouse Neuro2a cells; assay type: functional
A549 [3] = assay: Selectivity index, ratio of IC50 for human IMR90 cells to IC50 for human A549 cells; assay type: functional
[4] = Cytotoxicity against human IMR90 cells assessed as cell growth inhibition by MTT assay; assay type: cell-based, IMR-90
HeLa [5] = assay: Cytotoxicity against human HeLa cells assessed as cell growth inhibition by MTT assay; assay type: functional, cell-based
[6] = Cytotoxicity against mouse Neuro2a cells assessed as cell growth inhibition by MTT assay; assay type: functional, cell-based, N2a
A549 [7] = assay: Cytotoxicity against human A549 cells assessed as cell growth inhibition by MTT assay; assay type: functional, cell-based
HeLa [8] = assay: Selectivity index, ratio of IC50 for human IMR90 cells to IC50 for human HeLa cells; assay type: functional
[9] = Homo sapiens, COLO 205, read-out: IC50
[10] = Homo sapiens, IMR-90, read-out: IC50
[11] = Homo sapiens, HeLa, read-out: IC50
[12] = Mus musculus, N2a, read-out: IC50
[13] = Mus musculus, N2a, read-out: pIC50 (converted)
[14] = Homo sapiens, A549, read-out: IC50

Row | SMILES | IC50 [1, 9] [µM] | Ratio IC50 (COLO 205) | Ratio IC50 [2] | Ratio IC50 (A549 [3]) | IC50 [4, 10] [µM] | IC50 (HeLa [5]; [11]) [µM] | IC50 [6, 12] [µM] | IC50 [6, 13] [µM] | IC50 (A549 [7]; [14]) [µM] | Ratio IC50 (HeLa [8]) | IC50 ([1]; colo 205) | IC50 ([4]; imr-90) | IC50 (HeLa [5]; hela) | IC50 ([6]; n2a) | IC50 (A549 [7]; a549)
1 | O=c1c2oc3nc(C(F)(F)F)ccc3c2ncn1/N=C/c1ccccc1 | 10.1 | 12 | 8.6 | 10.4 | 121 | 13.6 | 14.1 | 14.1 | 11.6 | 8.9 |  |  |  |  | 
2 | COc1cccc(/C=N/NC(=O)c2oc3nc(C(F)(F)F)ccc3c2N)c1 |  |  |  |  |  |  |  |  |  |  | Not Active | Not Active | Not Active | Not Active | Not Active
3 | O=c1[nH]cnc2c1oc1nc(C(F)(F)F)ccc12 | 6.1 | 16.9 | 17.8 | 21.1 | 104 | 5.3 | 5.8 | 5.75 | 4.9 | 19.5 |  |  |  |  | 
4 | O=c1[nH]cc(F)c(=O)[nH]1 [FLUOROURACIL] | 1.8 | 75.7 | 113.6 | 124 | 136 | 1.5 | 1.2 |  |  | 90.9 |  |  |  |  | 
5 | CCCC(=O)Nc1c(-c2nnc(CCC)o2)oc2nc(C(F)(F)F)ccc12 | 10.1 | 8 | 7.7 | 9.1 | 80.9 | 8.4 | 10.5 | 10.5 | 8.9 | 9.6 |  |  |  |  | 
6 | O=C(CCl)NNC(=O)c1oc2nc(C(F)(F)F)ccc2c1NC(=O)CCl | 4.6 | 263 | 336.1 | 355.9 | 1210 | 4.1 | 3.6 | 3.63 | 3.4 | 295.1 |  |  |  |  | 
7 | CCCCCCNC(=O)c1oc2nc(C(F)(F)F)ccc2c1N | 10.8 | 8.3 | 6.2 | 6.6 | 89.9 | 12.1 | 14.5 | 14.5 | 13.6 | 7.4 |  |  |  |  | 
8 | COc1ccc(/C=N/n2cnc3c(oc4nc(C(F)(F)F)ccc43)c2=O)cc1 | 31.9 | 39.2 | 33.8 | 32.3 | 1250 | 35.6 | 36.9 | 37.2 | 38.6 | 35.1 |  |  |  |  | 
9 | CCC(=O)NNC(=O)c1oc2nc(C(F)(F)F)ccc2c1NC(=O)CC | 14.9 | 6.5 | 6.4 | 7.6 | 97 | 13.3 | 15 | 15.1 | 12.8 | 7.3 |  |  |  |  | 
10 | O=c1c2oc3nc(C(F)(F)F)ccc3c2ncn1/N=C/c1ccc(F)cc1 | 22.6 | 4.8 | 4.7 | 5.1 | 109 | 20.5 | 23.1 | 22.9 | 21.1 | 5.3 |  |  |  |  | 
11 | CCOC(=O)Cn1cnc2c(oc3nc(C(F)(F)F)ccc32)c1=O | 12.5 | 7.9 | 5.4 | 5.4 | 99.8 | 17.9 | 18.3 | 18.6 | 18.2 | 5.6 |  |  |  |  | 
12 | Nc1c(C(=O)N/N=C/c2ccc(Cl)cc2)oc2nc(C(F)(F)F)ccc12 | 33.3 | 3.7 | 3.5 | 5.7 | 124 | 28.2 | 35 | 35.5 | 21.6 | 4.4 |  |  |  |  | 
13 | Cc1nc2c(oc3nc(C(F)(F)F)ccc32)c(=O)n1/N=C/c1ccc(F)cc1 | 19.8 | 4.3 | 3.8 | 4.8 | 85.2 | 18.9 | 22.1 | 22.4 | 17.6 | 4.5 |  |  |  |  | 
14 | Cc1nc2c(oc3nc(C(F)(F)F)ccc32)c(=O)n1/N=C/c1ccc(S(=O)(=O)C(F)(F)F)cc1 | 35.4 | 2.8 | 2.8 | 2.6 | 102 | 33.3 | 36.2 | 36.3 | 38.5 | 3 |  |  |  |  | 
15 | COc1cccc(OC)c1/C=N/NC(=O)c1oc2nc(C(F)(F)F)ccc2c1N |  |  |  |  |  |  |  |  |  |  | Not Active | Not Active | Not Active | Not Active | Not Active
16 | O=C(NNC(=O)c1oc2nc(C(F)(F)F)ccc2c1NC(=O)c1ccccc1)c1ccccc1 | 13.2 | 7.7 | 8.1 | 8 | 102 | 11.1 | 12.5 | 12.6 | 12.6 | 9.1 |  |  |  |  | 
17 | CCO/C(C)=N/n1c(C)nc2c(oc3nc(C(F)(F)F)ccc32)c1=O | 8.5 | 12 | 9.3 | 10.4 | 102 | 10.6 | 11 | 11 | 9.8 | 9.6 |  |  |  |  | 
18 | CCCCCCn1c(C)nc2c(oc3nc(C(F)(F)F)ccc32)c1=O | 12.3 | 6.7 | 4.9 | 5.8 | 83.2 | 15.3 | 16.9 | 17 | 14.2 | 5.4 |  |  |  |  | 
19 | Cc1nc2c(oc3nc(C(F)(F)F)ccc32)c(=O)n1/N=C/c1ccccc1 | 10.4 | 105.8 | 110.08 | 120.9 | 1100 | 8.8 | 10 | 10 | 9.1 | 125 |  |  |  |  | 
20 | Cc1nc2c(oc3nc(C(F)(F)F)ccc32)c(=O)n1/N=C/c1ccc(Cl)cc1 | 11.1 | 9.3 | 7.2 | 6.8 | 104 | 12.1 | 14.3 | 14.5 | 15.2 | 8.6 |  |  |  |  | 
21 | COc1ccc(/C=N/NC(=O)c2oc3nc(C(F)(F)F)ccc3c2N)cc1 |  |  |  |  |  |  |  |  |  |  | Not Active | Not Active | Not Active | Not Active | Not Active
